From patent US9255295B2, “Method for evaluating the sensitizing potential of a test compound” (IMMUNOSEARCH, priority 2010, dated 2016)

Tests used:
EPISKIN model = assay: Sensitizing power: sensitizing potential retested at successive dilutions in the EPISKIN model
[1] = tested on: genes specific for sensitization (BRAK, CTSS, DAPK2, FABP4, HSP27, IL18, HSP90, IL1R2, TPSAB1, CXCR1, DEFB1, DHFR, EHF, IVL, KRT4, MELANA, NGAL, PDZK1IP1, PI3 …); assay: Expression of the other (non-ARE) sensitization-specific genes in EPISKIN reconstructed skin (quantitative RT-PCR); assay type: cell-based, human;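 on CTSS NUMBER OF GENES grade: grade scored against expression in the control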;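 on CXCR1 NUMBER OF GENES grade: grade scored against expression in the control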;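 on DAPK2 NUMBER OF GENES grade: grade scored against expression in the control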

## O=CC=O [Glyoxal]
EPISKIN model; 0.1%
  sensitizing potential (conclusion): Sensitizing
EPISKIN model; 1%
  sensitizing potential (conclusion): Sensitizing
EPISKIN model; 10%
  sensitizing potential (conclusion): Sensitizing
EPISKIN model; 50%
  sensitizing potential (conclusion): Sensitizing
EPISKIN model; from successive dilutions
  sensitizing power (class): MODERATE
[1]; 0.1%
  BRAK NUMBER OF GENES grade: 0 (if this expression is lower, the grade is 0)
  CTSS NUMBER OF GENES grade: 0 (if this expression is lower, the grade is 0)
  CXCR1 NUMBER OF GENES grade: 0 (if this expression is lower, the grade is 0)
  DAPK2 NUMBER OF GENES grade: 0 (if this expression is lower, the grade is 0)
  DEFB1 NUMBER OF GENES grade: 0 (if this expression is lower, the grade is 0)
  DHFR NUMBER OF GENES grade: 0 (if this expression is lower, the grade is 0)
  EHF NUMBER OF GENES grade: 0 (if this expression is lower, the grade is 0)
  FABP4 NUMBER OF GENES grade: 0 (if this expression is lower, the grade is 0)
  HSP27 NUMBER OF GENES grade: 0 (if this expression is lower, the grade is 0)
  HSP90 NUMBER OF GENES grade: 0 (if this expression is lower, the grade is 0)
  IL18 NUMBER OF GENES grade: 0 (if this expression is lower, the grade is 0)
  IVL NUMBER OF GENES grade: 0 (if this expression is lower, the grade is 0)
  KRT4 NUMBER OF GENES grade: 0 (if this expression is lower, the grade is 0)
  MELANA NUMBER OF GENES grade: 0 (if this expression is lower, the grade is 0)
  NGAL NUMBER OF GENES grade: 0 (if this expression is lower, the grade is 0)
  P13 NUMBER OF GENES grade: 0 (if this expression is lower, the grade is 0)
  PDZK1iP1 NUMBER OF GENES grade: 0 (if this expression is lower, the grade is 0)
  SENS >1.3 (number of genes): 0
  SERPINB3 NUMBER OF GENES grade: 0 (if this expression is lower, the grade is 0)
  TOTAL SENS (number of genes): 0
[1]; 0.1%, compared to the control
  BRAK expression: 0.6
  CTSS expression: 1.0
  CXCR1 expression: 1.1
  DAPK2 expression: 0.9
  DEFB1 expression: 0.8
  DHFR expression: 0.9
  EHF expression: 0.8
  FABP4 expression: 0.4
  HSP27 expression: 0.7
  HSP90 expression: 1.0
  IL18 expression: 0.8
  IVL expression: 0.7
  KRT4 expression: 0.9
  MELANA expression: 0.5
  NGAL expression: 0.7
  P13 expression: 0.8
  PDZK1iP1 expression: 0.9
  SERPINB3 expression: 1.0
[1]; 1%
  BRAK NUMBER OF GENES grade: 0 (if this expression is lower, the grade is 0)
  CTSS expression compared to control: 1.3
  CTSS grade (NUMBER OF GENES): 1 (If the expression is greater than 1.3 compared to the control, a grade of 11s given)
  CXCR1 expression compared to control: 1.6
  CXCR1 grade (NUMBER OF GENES): 1 (If the expression is greater than 1.3 compared to the control, a grade of 11s given)
  DAPK2 expression compared to control: 0.9
  DAPK2 grade (NUMBER OF GENES): 0 (if this expression is lower, the grade is 0)
  DEFB1 expression compared to control: 1.4
  DEFB1 grade (NUMBER OF GENES): 1 (If the expression is greater than 1.3 compared to the control, a grade of 11s given)
  DHFR NUMBER OF GENES grade: 0 (if this expression is lower, the grade is 0)
  EHF expression compared to control: 0.9
  EHF grade (NUMBER OF GENES): 0 (if this expression is lower, the grade is 0)
  FABP4 expression compared to control: 0.8
  FABP4 grade (NUMBER OF GENES): 0 (if this expression is lower, the grade is 0)
  HSP27 expression compared to control: 0.8
  HSP27 grade (NUMBER OF GENES): 0 (if this expression is lower, the grade is 0)
  HSP90 NUMBER OF GENES grade: 0 (if this expression is lower, the grade is 0)
  IL18 NUMBER OF GENES grade: 0 (if this expression is lower, the grade is 0)
  IVL expression compared to control: 1.7
  IVL grade (NUMBER OF GENES): 1 (If the expression is greater than 1.3 compared to the control, a grade of 11s given)
  KRT4 NUMBER OF GENES grade: 0 (if this expression is lower, the grade is 0)
  MELANA NUMBER OF GENES grade: 0 (if this expression is lower, the grade is 0)
  NGAL expression compared to control: 0.6
  NGAL grade (NUMBER OF GENES): 0 (if this expression is lower, the grade is 0)
  P13 expression compared to control: 1.4
  P13 grade (NUMBER OF GENES): 1 (If the expression is greater than 1.3 compared to the control, a grade of 11s given)
  PDZK1iP1 NUMBER OF GENES grade: 0 (if this expression is lower, the grade is 0)
  SENS >1.3 (number of genes): 6
  SERPINB3 NUMBER OF GENES grade: 0 (if this expression is lower, the grade is 0)
  TOTAL SENS (number of genes): 6
[1]; 1%, compared to the control
  BRAK expression: 0.5
  DHFR expression: 0.9
  HSP90 expression: 1.1
  IL18 expression: 1.0
  KRT4 expression: 0.6
  MELANA expression: 1.1
  PDZK1iP1 expression: 1.0
  SERPINB3 expression: 1.1
[1]; 10%
  BRAK NUMBER OF GENES grade: 0 (if this expression is lower, the grade is 0)
  CTSS expression compared to control: 2.2
  CTSS grade (NUMBER OF GENES): 1 (If the expression is greater than 1.3 compared to the control, a grade of 11s given)
  CXCR1 expression compared to control: 1.8
  CXCR1 grade (NUMBER OF GENES): 1 (If the expression is greater than 1.3 compared to the control, a grade of 11s given)
  DAPK2 expression compared to control: 0.9
  DAPK2 grade (NUMBER OF GENES): 0 (if this expression is lower, the grade is 0)
  DEFB1 expression compared to control: 1.6
  DEFB1 grade (NUMBER OF GENES): 1 (If the expression is greater than 1.3 compared to the control, a grade of 11s given)
  DHFR NUMBER OF GENES grade: 0 (if this expression is lower, the grade is 0)
  EHF expression compared to control: 0.9
  EHF grade (NUMBER OF GENES): 0 (if this expression is lower, the grade is 0)
  FABP4 expression compared to control: 0.8
  FABP4 grade (NUMBER OF GENES): 0 (if this expression is lower, the grade is 0)
  HSP27 expression compared to control: 0.8
  HSP27 grade (NUMBER OF GENES): 0 (if this expression is lower, the grade is 0)
  HSP90 NUMBER OF GENES grade: 1 (If the expression is greater than 1.3 compared to the control, a grade of 11s given)
  IL18 NUMBER OF GENES grade: 1 (If the expression is greater than 1.3 compared to the control, a grade of 11s given)
  IVL expression compared to control: 1.6
  IVL grade (NUMBER OF GENES): 1 (If the expression is greater than 1.3 compared to the control, a grade of 11s given)
  KRT4 NUMBER OF GENES grade: 1 (If the expression is greater than 1.3 compared to the control, a grade of 11s given)
  MELANA NUMBER OF GENES grade: 0 (if this expression is lower, the grade is 0)
  NGAL expression compared to control: 1.3
  NGAL grade (NUMBER OF GENES): 1 (If the expression is greater than 1.3 compared to the control, a grade of 11s given)
  P13 expression compared to control: 1.3
  P13 grade (NUMBER OF GENES): 1 (If the expression is greater than 1.3 compared to the control, a grade of 11s given)
  PDZK1iP1 NUMBER OF GENES grade: 1 (If the expression is greater than 1.3 compared to the control, a grade of 11s given)
  SENS >1.3 (number of genes): 13
  SERPINB3 NUMBER OF GENES grade: 1 (If the expression is greater than 1.3 compared to the control, a grade of 11s given)
  TOTAL SENS (number of genes): 13
[1]; 10%, compared to the control
  BRAK expression: 0.5
  DHFR expression: 0.9
  HSP90 expression: 1.5
  IL18 expression: 1.3
  KRT4 expression: 1.4
  MELANA expression: 1.1
  PDZK1iP1 expression: 1.4
  SERPINB3 expression: 1.3
[1]; 50%
  BRAK NUMBER OF GENES grade: 0 (if this expression is lower, the grade is 0)
  CTSS expression compared to control: 2.7
  CTSS grade (NUMBER OF GENES): 1 (If the expression is greater than 1.3 compared to the control, a grade of 11s given)
  CXCR1 expression compared to control: 2.7
  CXCR1 grade (NUMBER OF GENES): 1 (If the expression is greater than 1.3 compared to the control, a grade of 11s given)
  DAPK2 expression compared to control: 0.9
  DAPK2 grade (NUMBER OF GENES): 0 (if this expression is lower, the grade is 0)
  DEFB1 expression compared to control: 1.6
  DEFB1 grade (NUMBER OF GENES): 1 (If the expression is greater than 1.3 compared to the control, a grade of 11s given)
  DHFR NUMBER OF GENES grade: 0 (if this expression is lower, the grade is 0)
  EHF expression compared to control: 0.9
  EHF grade (NUMBER OF GENES): 0 (if this expression is lower, the grade is 0)
  FABP4 expression compared to control: 0.8
  FABP4 grade (NUMBER OF GENES): 0 (if this expression is lower, the grade is 0)
  HSP27 expression compared to control: 0.8
  HSP27 grade (NUMBER OF GENES): 0 (if this expression is lower, the grade is 0)
  HSP90 NUMBER OF GENES grade: 1 (If the expression is greater than 1.3 compared to the control, a grade of 11s given)
  IL18 NUMBER OF GENES grade: 0 (if this expression is lower, the grade is 0)
  IVL expression compared to control: 1.5
  IVL grade (NUMBER OF GENES): 1 (If the expression is greater than 1.3 compared to the control, a grade of 11s given)
  KRT4 NUMBER OF GENES grade: 0 (if this expression is lower, the grade is 0)
  MELANA NUMBER OF GENES grade: 0 (if this expression is lower, the grade is 0)
  NGAL expression compared to control: 0.6
  NGAL grade (NUMBER OF GENES): 0 (if this expression is lower, the grade is 0)
  P13 expression compared to control: 1.4
  P13 grade (NUMBER OF GENES): 1 (If the expression is greater than 1.3 compared to the control, a grade of 11s given)
  PDZK1iP1 NUMBER OF GENES grade: 0 (if this expression is lower, the grade is 0)
  SENS >1.3 (number of genes): 8
  SERPINB3 NUMBER OF GENES grade: 1 (If the expression is greater than 1.3 compared to the control, a grade of 11s given)
  TOTAL SENS (number of genes): 8
[1]; 50%, compared to the control
  BRAK expression: 0.5
  DHFR expression: 0.9
  HSP90 expression: 2.0
  IL18 expression: 1.0
  KRT4 expression: 0.6
  MELANA expression: 1.1
  PDZK1iP1 expression: 1.0
  SERPINB3 expression: 1.7
